The values that follow come from US12502369B2, “Methods of cancer treatment” (K-GEN, INC., priority 2015, dated 2025).

One series relates to H358. As to the kind of experiment: Proliferation assay (CellTiter Glo), H358. The format is cell-based. The note with it: for Top inhibition %: 96 hours. How it is done:
(§1) Briefly, cells at a density of 1,000-10,000 cells/well were seeded in 96-well plates and incubated at 37′C for 24 hours. A series of 9 different concentrations of compound stocks (500×) were created by 3-fold serial dilution in DMSO. These compounds were further diluted in culture media and then added to cells so that the final DMSO concentration was 0.2%. After 96 hours of incubation, 50 μL of CellTiter Glo reagent (Promega) was added to each well and luminescence was measured after 10 minutes using EnVision (PerkinElmer). […] The dose range for most compounds was 4.6 nM-30 μM. The dose ranges for some compounds were adjusted downward to 0.46 nM-3 μM or 0.08 nM-0.5 μM or 0.03 nM-0.2 μM. Luminescence from cells treated with […] alone was set as Max and % of inhibition was calculated as follows: Inhibition %=(Max-Sample value)/Max*100. Data was analyzed using XL-fit software (ID Business Solutions Ltd.) and EC50, relative EC50, and % of top inhibition were calculated. The results are shown in Tables 3-6 for pancreatic cancer, lung cancer, colon/gastric cancer, and leukemia cell lines.
On the technique in general: ATP-based viability assays read luminescence as a measure of living cells.

The test system of a further series is SW900. Put plainly: Proliferation assay (CellTiter Glo), SW900. The format is cell-based. To be noted: SW900 (K-ras: G12V). On the procedure: as §1, with “calculated.” for “calculated. The results are shown in Tables 3-6 for pancreatic cancer, lung cancer, colon/gastric cancer, and leukemia cell lines.”
(§2) Other cancer cell lines having wild-type K-ras status and K-ras mutation at G12 were also screened using the PKC activator compounds. […] K-104 was tested in a range of 0.03 nM-0.2 μM. […] The dose ranges were adjusted downward to 0.46 nM-3 μM for K-102 and 0.08 nM-0.5 μM for K-103 for some cell lines.

The subject of another series is H838. Put plainly: Proliferation assay (CellTiter Glo), H838. The format is cell-based. To be noted: H838 (WT K-ras). On the procedure: as §1, with “calculated.” for “calculated. The results are shown in Tables 3-6 for pancreatic cancer, lung cancer, colon/gastric cancer, and leukemia cell lines.”
as §2

The subject of another series is Colo205. Put plainly: Proliferation assay (CellTiter Glo), Colo205. The note with it: Colo205 (WT K-ras). The format is cell-based. On the procedure: as §1, with “calculated.” for “calculated. The results are shown in Tables 3-6 for pancreatic cancer, lung cancer, colon/gastric cancer, and leukemia cell lines.”
as §2

Series [1] deals with PKCδ, PKCμ, c-Raf in xMiaPaCa-2, MiaPaCa-2, Panc6.03, Panc1. Put plainly: Activation of PKC isoforms in pancreatic cancer cell lines, Western blot. The format is cell-based.
The next series concerns HCT116. As to the kind of experiment: Proliferation assay (CellTiter Glo), HCT116. The format is cell-based. The note with it: for Top inhibition %: 96 hours. On the procedure: as §1
Series [2] concerns Cancer cell lines (161 different lines). As to the kind of experiment: Proliferation assay, 161 cancer cell lines, 72 hours. The format is cell-based. On the procedure:
Cells were treated for 72 hours instead of 96 hours. Thus, cell numbers from individual cell line were optimized so that cells were ˜70-80% confluent in 72 hours when treated with vehicle only. […] A number of other cancer cell lines from bladder, ovarian, myeloma, prostrate, and renal cancers are also sensitive to K-101A. Most cell lines from liver and lung (SCLC) are resistant to K101A.

The subject of a further series is HT29. As to the kind of experiment: Proliferation assay (CellTiter Glo), HT29. The format is cell-based. To be noted: HT29 (WT K-ras). How it is done: as §1, with “calculated.” for “calculated. The results are shown in Tables 3-6 for pancreatic cancer, lung cancer, colon/gastric cancer, and leukemia cell lines.”
as §2

The conditions of series [3]: literature reports; cited from earlier work.
A further series has as its system LS180. Put plainly: Proliferation assay (CellTiter Glo), LS180. The format is cell-based. To be noted: for Top inhibition %: 96 hours; for pEC50: absolute EC50, 96 hours, read-out: Ab EC50. On the procedure:
as §1

The test system of a further series is lymphoma cell lines. Put plainly: Proliferation assay, 9 lymphoma cell lines. The format is cell-based. To be noted: for pIC50: among the sensitive lymphoma cell lines, read-out: IC50 ranges. On the procedure: PKC activators were tested in 9 lymphoma cell lines (Table 10). Proliferation assays were performed as described in Example 1.
For a further series, the system named is PKCδ. Put plainly: PKCδ Tyr311 phosphorylation in A549, HCT116, SW620, Panc02.13 cells, Western blot. The format is cell-based. To be noted: 30 minutes. How it is done:
Non-cancerous lung fibroblast cell line HFL-1 or cancer cells (2-8 million cells) were seeded in 10 cm dishes and grown overnight so that the cells were about 40-80% confluent before treatment with the compound. Cells were then treated with different drugs at indicated concentrations (see descriptions for FIG. 11 and FIG. 12) for 30 minutes. Cell lysate preparation, protein quantitation, SDS-PAGE, and Western blotting procedures are described in Example 2 and 4. Primary antibodies used in this Example and later Examples of this application are shown in Table A. Secondary antibodies Anti-mouse IgG HRP conjugate or Anti-rabbit IgG HRP conjugate (dilutions from 1:2000-1:10000) were used. Western blot membranes were scanned using Imagequant LAS4000 (GE). The results are shown in FIG. 11A and FIG. 11B for HFL-1 cells and FIG. 11C and FIG. 12 for A549 cells.
A general note: A western blot detects proteins with antibodies after separation by electrophoresis.

In series [4] the test system is PKCμ and PKCδ in Namalwa, Mino, Raji, Daudi. Put plainly: Activation of PKC isoforms in four lymphoma cell lines, Western blot. The format is cell-based. On the procedure: Western blot analysis was performed as described in Example 2 and 4.
The next series deals with THP1. As to the kind of experiment: Proliferation assay (CellTiter Glo), THP1. The note with it: for Top inhibition %: 96 hours. The format is cell-based. On the procedure: as §1
In another series the test system is BxPC-3. Put plainly: Proliferation assay (CellTiter Glo), BxPC-3. The format is cell-based. The note with it: BxPC-3 (WT K-ras). How it is done: as §1, with “calculated.” for “calculated. The results are shown in Tables 3-6 for pancreatic cancer, lung cancer, colon/gastric cancer, and leukemia cell lines.”
as §2

The next series concerns Panc2.03. As to the kind of experiment: Proliferation assay (CellTiter Glo), Panc2.03. The format is cell-based. The note with it: for Top inhibition %: 96 hours. How it is done: as §1
Where [5] appears, read: 9 lymphoma cell lines of Table 10.
Where [6] appears, read: absolute EC50, 96 hours, read-out: Ab EC50.
Where [7] appears, read: relative EC50, 96 hours, read-out: Re EC50.

pEC50, pIC50: −log10 of the molar value. Entries after “also recorded” stand apart in the source; their conditions may differ. Read-outs that look alike come from different tables or passages of the source.

For `CC(=O)O[C@@]12C[C@@H](C)[C@]3(O)C4C=C(C)C(=O)[C@@]4(O)CC(CO)=C[C@H]3[C@@H]1C2(C)C` (stereo partly drawn) [Compound K-101A, Prostratin], the Top inhibition % in the series on H358 came out at 56.4%; in the series on SW900 it was 7.1%; in the series with H838, 10.1%; with Colo205, 83.6%; with HCT116 it was 17.4%; with HT29, 12.8%. In addition, the Top inhibition % in the series on LS180 was determined as 4.4%; with THP1 it was 51.8%; in the series with BxPC-3, 40.11%; in the series on Panc2.03, 27.0%. Moreover, the pEC50 is 5.31 in the series with H358 (Homo sapiens, NCI-H358, absolute EC50, 96 hours, read-out: Ab EC50); 6.80 in the series with H358 (Homo sapiens, NCI-H358, relative EC50, 96 hours, read-out: Re EC50); less than 4.52 with HCT116 (Homo sapiens, HCT-116, absolute EC50, 96 hours, read-out: Ab EC50); less than 4.52 with LS180 (Homo sapiens); 6.06 with THP1 (Homo sapiens, THP-1, absolute EC50, 96 hours, read-out: Ab EC50); 6.52 with THP1 (Homo sapiens, THP-1, relative EC50, 96 hours, read-out: Re EC50). The pEC50 is less than 4.52 in the series on Panc2.03 (Homo sapiens, Panc203, absolute EC50, 96 hours, read-out: Ab EC50) and 6.92 in the series on Panc2.03 (Homo sapiens, Panc203, relative EC50, 96 hours, read-out: Re EC50). The “phosphorylation of c-Raf at Ser338” value in series [1] is on record as “induced phosphorylation”. Moreover, the “phosphorylations of PKCδ at Thr505 and PKCμ at Ser744/748” value in series [1] is “increased”. Further, in [2], the “sensitivity of most cell lines from liver and lung (SCLC)” value was “resistant”. In addition, in series [2] (161 cell lines), the “cell lines showing top inhibition above 30%” value is given as “Roughly 50 % of the cell lines”. In addition, the “cell lines showing top inhibition above 50%” value in [2] (161 cell lines) is listed as ~25 % of the cell lines. Besides, the “lines having a top inhibition above 30%” value in series [2] (breast cancer cell lines) is on record as 9 out of 18; in series [2] (leukemia cell lines), 10 out of 11. For the same compound, in series [3], the tumor promotion entry is “non-tumor-promoting”. Moreover, the “sensitivity of lymphoma cell lines” value with lymphoma cell lines (setting [5]) is on record as “Seven lymphoma cell lines were very sensitive”; in the series with lymphoma cell lines (Daudi and Raji), “not sensitive”. Moreover, the pIC50 in the series with lymphoma cell lines is 6.55 to 7.11. For the same compound, in the series with PKCδ, the “PKCδ activation, phosphorylation at Tyr311” value was “observed for cell lines HCT116 and SW620 but not as significantly for cell lines A549 and Pan 02,13; also recorded: observed for cell lines HCT116 and SW620 but not as significantly for cell lines A549 and Panc02.13”. The “phosphorylation of PKCμ at Ser744/748 and Ser916 and PKCδ at Thr505” value in series [4] is recorded as “induced in all cell lines”. Also, in series [4], the “proportion of phosphorylated PKCμ at Ser916/total PKCμ” value is given as “much greater in two sensitive cell lines”.

As for `CC(=O)OCC1=C[C@H]2[C@@H]3C(C)(C)[C@]3(OC(C)=O)C[C@@H](C)[C@]2(O)C2C=C(C)C(=O)[C@@]2(O)C1` (stereo partly drawn) [Compound K-101E], the Top inhibition % was 47.9% in the series on H358; 25.4% in the series with SW900; 26.8% in the series with H838; 85.8% in the series on Colo205; 27.4% in the series on HCT116; 31.7% with HT29. For the same compound, the Top inhibition % was 1.3% in the series on LS180, 51.6% in the series on THP1, 38.87% in the series with BxPC-3 and 36.5% with Panc2.03. Moreover, the pEC50 is less than 4.52 in the series on H358 (setting [6]); 5.90 in the series on H358 (setting [7]); less than 4.52 in the series with HCT116 (setting [6]); 5.18 in the series on HCT116 (setting [7]); less than 4.52 with LS180; 5.44 in the series with THP1 (setting [6]). Besides, the pEC50 is 5.99 in the series on THP1 (setting [7]), less than 4.52 with Panc2.03 (setting [6]) and 5.72 in the series with Panc2.03 (setting [7]).

As for `C/C=C(/C)C(=O)O[C@H]1C(C)=C[C@]23C(=O)[C@@H](C=C(CO)[C@@H](O)[C@]12O)[C@H]1[C@@H](C[C@H]3C)C1(C)C` [Compound K-102, Ingenol-3-angelate, reference compound], the “phosphorylations of PKCδ at Thr505 and PKCμ at Ser744/748” value in [1] (all four pancreatic cell lines, K101A 1 μM, K102 0.1 μM) was “increased”. Besides, the “phosphorylation of c-Raf at Ser338” value in series [1] (pancreatic cell lines, K101A 1 μM, K102 0.1 μM) was “induced phosphorylation”. In addition, the “sensitivity of lymphoma cell lines” value with lymphoma cell lines (setting [5]) is recorded as “Seven lymphoma cell lines were very sensitive”; in the series on lymphoma cell lines (Daudi and Raji) it was “not sensitive”. Also, in the series with lymphoma cell lines, the pIC50 is 8.30 to 9.10. Besides, in the series on PKCδ, the “PKCδ activation, phosphorylation at Tyr311” value was “observed for PKC activator insensitive cell lines HCT116 and SW620 but not as significantly for sensitive cell lines A549 and Pan 02,13; also recorded: observed for cell lines HCT116 and SW620 but not as significantly for cell lines A549 and Panc02.13”.

A word on the pEC50: it is −log10 of the EC50, conventionally taken in molar units. Broadly, the pIC50 is the IC50 on a negative log10 scale, so that one unit is a factor of ten.
